Several values for one entry are separate records, joined by “and”; a condition that tells them apart may be missing. Identical values can stand only once.
Experiments:
[1] = xn = mol fraction of the nth substance listed; settings: 100 kPa, Liquid, Vibrating tube method
[2] = excess molar enthalpy (molar enthalpy of mixing); xn = mol fraction of the nth substance listed; settings: 100 kPa, Liquid, Calvet calorimetry

CC1=CCC(=O)O1 [5-methylfuran-2(3H)-one] + O
Settings | excess molar enthalpy, [2] | mass density, [1]
288.15 K, x1 = 0.001003 | -0.000397 kcal/mol and -0.000394 kcal/mol | 999.878 kg/m3 and 999.871 kg/m3
288.15 K, x1 = 0.002004 | -0.000729 kcal/mol | 1000.64 kg/m3
288.15 K, x1 = 0.002005 | -0.000727 kcal/mol | 1000.64 kg/m3
288.15 K, x1 = 0.003003 | -0.00101 kcal/mol | 1001.39 kg/m3
288.15 K, x1 = 0.003004 | -0.00101 kcal/mol | 1001.39 kg/m3
288.15 K, x1 = 0.004 | -0.00125 kcal/mol | 1002.15 kg/m3
288.15 K, x1 = 0.004001 | -0.00123 kcal/mol | 1002.14 kg/m3
288.15 K, x1 = 0.004995 | -0.00143 kcal/mol | 1002.91 kg/m3
288.15 K, x1 = 0.004996 | -0.00141 kcal/mol | 1002.92 kg/m3
288.15 K, x1 = 0.00599 | -0.00152 kcal/mol and -0.00155 kcal/mol | 1003.65 kg/m3 and 1003.64 kg/m3
298.15 K, x1 = 0.001003 | -2.65e-05 kcal/mol | 997.759 kg/m3
298.15 K, x1 = 0.001004 | -2.65e-05 kcal/mol | 997.756 kg/m3
298.15 K, x1 = 0.002004 | -6.21e-06 kcal/mol | 998.467 kg/m3
298.15 K, x1 = 0.002006 | -6.21e-06 kcal/mol | 998.464 kg/m3
298.15 K, x1 = 0.003003 | 6.57e-05 kcal/mol | 999.156 kg/m3
298.15 K, x1 = 0.003005 | 6.05e-05 kcal/mol | 999.156 kg/m3
298.15 K, x1 = 0.004 | 0.000175 kcal/mol | 999.847 kg/m3
298.15 K, x1 = 0.004003 | 0.000175 kcal/mol | 999.843 kg/m3
298.15 K, x1 = 0.004993 | 0.000335 kcal/mol | 1000.51 kg/m3
298.15 K, x1 = 0.004998 | 0.000332 kcal/mol | 1000.53 kg/m3
298.15 K, x1 = 0.005987 | 0.000559 kcal/mol | 1001.2 kg/m3
298.15 K, x1 = 0.005992 | 0.000571 kcal/mol | 1001.21 kg/m3
308.15 K, x1 = 0.001003 | 0.000327 kcal/mol and 0.000325 kcal/mol | 994.684 kg/m3
308.15 K, x1 = 0.002003 | 0.000693 kcal/mol | 995.33 kg/m3
308.15 K, x1 = 0.002004 | 0.000693 kcal/mol | 995.328 kg/m3
308.15 K, x1 = 0.003002 | 0.0011 kcal/mol | 995.967 kg/m3
308.15 K, x1 = 0.003003 | 0.0011 kcal/mol | 995.967 kg/m3
308.15 K, x1 = 0.003999 | 0.00155 kcal/mol | 996.597 kg/m3
308.15 K, x1 = 0.004 | 0.00153 kcal/mol | 996.594 kg/m3
308.15 K, x1 = 0.004994 | 0.00204 kcal/mol | 997.199 kg/m3
308.15 K, x1 = 0.004995 | 0.00202 kcal/mol | 997.205 kg/m3
308.15 K, x1 = 0.005987 | 0.00257 kcal/mol | 997.78 kg/m3
308.15 K, x1 = 0.00599 | 0.00258 kcal/mol | 997.837 kg/m3
318.15 K, x1 = 0.001003 | 0.000667 kcal/mol | 990.808 kg/m3 and 990.803 kg/m3
318.15 K, x1 = 0.002003 | 0.00136 kcal/mol and 0.00137 kcal/mol | 991.392 kg/m3 and 991.396 kg/m3
318.15 K, x1 = 0.003002 | 0.00211 kcal/mol and 0.0021 kcal/mol | 991.977 kg/m3 and 991.98 kg/m3
318.15 K, x1 = 0.003998 | 0.00286 kcal/mol | 992.55 kg/m3
318.15 K, x1 = 0.003999 | 0.00286 kcal/mol | 992.546 kg/m3
318.15 K, x1 = 0.004993 | 0.00369 kcal/mol and 0.00367 kcal/mol | 993.112 kg/m3 and 993.102 kg/m3
318.15 K, x1 = 0.005986 | 0.00455 kcal/mol | 993.663 kg/m3
318.15 K, x1 = 0.005987 | 0.00456 kcal/mol | 993.668 kg/m3

From the NIST ThermoML archive (doi:10.1021/acs.jced.8b01146)
